Assay: xn = mol fraction of the nth substance listed
Conditions: 100 kPa, Liquid; for viscosity: Cone and plate viscometry; for mass density: Vibrating tube method

CCC(C)(C)O [2-methylbutan-2-ol] + CC(C)CO
Conditions | mass density [kg/m3] | viscosity [mPa·s]
293.15 K, x1 = 0.101 | 803.58 | 4.697
293.15 K, x1 = 0.2 | 805.09 | 5.166
293.15 K, x1 = 0.301 | 806.61 | 5.487
293.15 K, x1 = 0.4 | 807.99 | 5.819
293.15 K, x1 = 0.5 | 809.31 | 6.094
293.15 K, x1 = 0.599 | 810.29 | 6.075
293.15 K, x1 = 0.7 | 810.83 | 5.951
293.15 K, x1 = 0.8 | 810.82 | 5.518
293.15 K, x1 = 0.9 | 810.12 | 5.081
293.15 K, x1 = 1 | 808.77 | 4.596
303.15 K, x1 = 0.101 | 795.96 | 3.244
303.15 K, x1 = 0.2 | 797.22 | 3.387
303.15 K, x1 = 0.301 | 798.63 | 3.616
303.15 K, x1 = 0.4 | 799.87 | 3.726
303.15 K, x1 = 0.5 | 800.87 | 3.775
303.15 K, x1 = 0.599 | 801.55 | 3.715
303.15 K, x1 = 0.7 | 801.84 | 3.597
303.15 K, x1 = 0.8 | 801.61 | 3.386
303.15 K, x1 = 0.9 | 800.89 | 3.187
303.15 K, x1 = 1 | 799.74 | 2.983
313.15 K, x1 = 0.101 | 788 | 2.392
313.15 K, x1 = 0.2 | 789.04 | 2.445
313.15 K, x1 = 0.301 | 790.24 | 2.526
313.15 K, x1 = 0.4 | 791.21 | 2.552
313.15 K, x1 = 0.5 | 791.89 | 2.539
313.15 K, x1 = 0.599 | 792.32 | 2.46
313.15 K, x1 = 0.7 | 792.36 | 2.365
313.15 K, x1 = 0.8 | 792.06 | 2.287
313.15 K, x1 = 0.9 | 791.35 | 2.204
313.15 K, x1 = 1 | 790.35 | 2.078
323.15 K, x1 = 0.101 | 779.8 | 1.749
323.15 K, x1 = 0.2 | 780.62 | 1.776
323.15 K, x1 = 0.301 | 781.62 | 1.8
323.15 K, x1 = 0.4 | 782.29 | 1.792
323.15 K, x1 = 0.5 | 782.77 | 1.756
323.15 K, x1 = 0.599 | 782.89 | 1.721
323.15 K, x1 = 0.7 | 782.77 | 1.664
323.15 K, x1 = 0.8 | 782.3 | 1.606
323.15 K, x1 = 0.9 | 781.58 | 1.549
323.15 K, x1 = 1 | 780.66 | 1.494
333.15 K, x1 = 0.101 | 771.08 | 1.31
333.15 K, x1 = 0.2 | 771.75 | 1.315
333.15 K, x1 = 0.301 | 772.36 | 1.329
333.15 K, x1 = 0.4 | 772.81 | 1.316
333.15 K, x1 = 0.5 | 772.96 | 1.277
333.15 K, x1 = 0.599 | 772.93 | 1.243
333.15 K, x1 = 0.7 | 772.58 | 1.206
333.15 K, x1 = 0.8 | 772.09 | 1.164
333.15 K, x1 = 0.9 | 771.38 | 1.128
333.15 K, x1 = 1 | 770.4 | 1.093
343.15 K, x1 = 0.101 | 762.05 | –
343.15 K, x1 = 0.2 | 762.45 | –
343.15 K, x1 = 0.301 | 762.79 | –
343.15 K, x1 = 0.4 | 762.98 | –
343.15 K, x1 = 0.5 | 762.91 | –
343.15 K, x1 = 0.599 | 762.66 | –
343.15 K, x1 = 0.7 | 762.18 | –
343.15 K, x1 = 0.8 | 761.63 | –
343.15 K, x1 = 0.9 | 760.84 | –
343.15 K, x1 = 1 | 759.8 | –
353.15 K, x1 = 1 | 749.13 | –
363.15 K, x1 = 1 | 738.77 | –

Source: the NIST ThermoML archive (doi:10.1021/acs.jced.5b00537)
